Experimental data: US5683725A, “Modulation of substance P by compounds containing calcium sulfate and methods relating thereto” (BioFrontiers, Inc., priority 1995, dated 1997)
Values joined by “and” are separate entries in the source; they are usually repeats but may differ in a detail not shown here. Equal values may be shown once. No end group written: not given here.

Legend:
[1] = Single oral dose toxicity in Sprague Dawley rats, 14 day observation; type: in vivo, rat (Sprague Dawley); details: single oral dose 5 g/kg
Method: This example illustrates the non-toxic nature of a representative calcium sulfate compound of this invention (i.e., syngenite).
To determine the potential toxicity and/or toxic effects of syngenite when administered as a single oral dose in rats, 5 male and 5 female Sprague Dawley rats (200-300 grams) were administered syngenite at a dose level of 5 g/kg body weight by syringe and suitable intubation tubes.
The body weight of each rat was recorded (in grams) just prior to administration of syngenite (Day 0), and weekly thereafter for two weeks (i.e., Day 7 and Day 14).

[2] = test system: substance P-induced contractions of guinea pig ileum; assay: Antagonism of substance P: inhibition of substance P-induced contractions of isolated guinea pig ileum; details: for Antagonist Activity (% Inhibition): 100 μM, substance P-induced contractions of isolated guinea pig ileum, 37° C., with atropine, diphenhydramine, indomethacin; for Modulation of substance P (in words): conclusion from Table 1
From the text: The ability of the calcium sulfate compounds of this invention to modulate substance P may be assayed by known techniques, such as those disclosed by Mizrahi et al. (Eur. J. Pharmacol. 91:139-140, 1983) and Holzer et al. (P. Eur. J. Pharmacol. 91:83-88, 1983). For example, PanLabs Test Numbers 3-0580 screen the ability of compounds to function as substance P antagonists by determining the ability of the compound to inhibit substance P-induced contractions of guinea pig ileum (see Example 6 herein below).
This example illustrates the ability of representative calcium sulfate compounds of this invention to modulate substance P by functioning as substance P antagonists. Activity was measured by the procedures disclosed by Mizrahi et al. (Eur. J. Pharmacol. 91:139-140, 1983) and Holzer et al., (Eur. J. Pharmacol. 91:83-88, 1983). Specifically, isolated guinea pig ileum, bathed in physiological salt solution containing atropine (4.5 μM), diphenhydramaine (3.4 μM), and indomethacin (2.8 μM) at 37° C. was used. The ability of a test compounds to inhibit substance P-induced contractions of the illeum indicates antagonist activity.

febrile response = details: microinjected into the preoptic area of conscious guinea pigs; cited from earlier work
nasal protein output = details: exogenously applied, allergic rhinitis patients; cited from earlier work
stomach injury = details: cited from earlier work
cluster headaches = details: intranasal, humans; cited from earlier work
neurogenic inflammation = details: pretreatment of the oral mucosa; cited from earlier work

Question: For `O.O=S(=O)(O)O.O=S(=O)(O)O.[Ca].[K].[K]` [Syngenite], which “Body weight, Day 7” value ([1]; female rats) is on record?
Answer: 255 grams and 266 grams and 251 grams and 269 grams and 279 grams

Question: And the “Body weight, Day 14” value ([1]; female rats)?
Answer: 256 grams and 273 grams and 287 grams and 299 grams

Question: What about the “Body weight, Day 7” value ([1]; male rats) of the same compound?
Answer: 350 grams and 333 grams and 329 grams and 336 grams and 337 grams

Question: What about the “Body weight, Day 14” value ([1]; male rats) of the same compound?
Answer: 395 grams and 374 grams and 375 grams and 368 grams and 386 grams

Question: What about the “Gross abnormalities at necropsy” value [1] of the same compound?
Answer: No gross abnormalities in any of the animals were observed

Question: What about the Survival / mortality ([1]; 5 male and 5 female rats, 14 days) of the same compound?
Answer: All ten test animals survived the 14 day observation period

Question: And the Appearance of animals ([1]; 14 days)?
Answer: all animals appeared normal

Question: And the Clinical observations ([1]; 14 days)?
Answer: No clinical observations were noted

Question: And the “Toxicity (overall)” value ([1]; rats)?
Answer: non-toxic

Question: What about the “Antagonist Activity (% Inhibition)” value [2] of the same compound?
Answer: 40%

Question: What about the “Modulation of substance P (in words)” value [2] of the same compound?
Answer: effective modulating agents of substance P

Question: For `O.O.O=S(=O)([O-])[O-].[Ca+2]` [Gypsum, calcium sulfate dihydrate], which “Antagonist Activity (% Inhibition)” value [2] is on record?
Answer: 39%

Question: And the “Modulation of substance P (in words)” value [2]?
Answer: effective modulating agents of substance P

Question: Which results are given for “substance P: undecapeptide, member of the tachykinin family of mammalian regulatory peptides (RPKPQQFFGLM; ends and bridges not checked; UniProt P20366 58-68, looked up)”?
Answer: Temperature (febrile response): caused an increase in temperature; Nasal protein output (nasal protein output): causes an increase in nasal protein output; Areas of injury (stomach) (stomach injury; given IV): increased the areas of injury

Question: What does the source list for `O.O=S(=O)([O-])[O-].O=S(=O)([O-])[O-].O=S(=O)([O-])[O-].O=S(=O)([O-])[O-].O=S(=O)([O-])[O-].O=S(=O)([O-])[O-].[Ca+2].[Ca+2].[Ca+2].[Ca+2].[Ca+2].[K+].[K+]` [Gorgeyite]?
Answer: Antagonist Activity (% Inhibition) [2]: 16%; Modulation of substance P (in words) [2]: effective modulating agents of substance P

Question: With `COc1cc(CNC(=O)CCCC/C=C/C(C)C)ccc1O` [capsaicin] as the compound, how does the “Severity of cluster headaches” value (cluster headaches) read?
Answer: decrease the severity of cluster headaches

Question: And the “Area of stomach injury” value (stomach injury; intragastric, prior to challenge with 30% ETOH)?
Answer: reduced the area of stomach injury

Question: And the “Neurogenic inflammation upon local administration of substance P” value (neurogenic inflammation)?
Answer: prevents neurogenic inflammation
